{
  "source": "PubChem BioAssay AID330",
  "about": "(DTP/NCI, 2004)",
  "system": "P388 leukemia ip, CD2F1 mice, survival T/C",
  "assay": "NCI In Vivo Anticancer Drug Screen. Data for tumor model P388 Leukemia (intraperitoneal) in CD2F1 (CDF1) mice",
  "settings": "endpoint: median survival time, higher = longer survival",
  "method_in_brief": "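Mice carrying the transplanted tumor received test compound or vehicle. Survival was recorded in each group, and the value is the treated-group measurement divided by that of the vehicle-treated control group.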",
  "key": {"[1]": {"settings": "dose: 25.0 mg/kg/injection, schedule: Q01DX009 (ip), vehicle: saline with Tween-80"}, "[2]": {"settings": "dose: 50.0 mg/kg/injection, schedule: Q01DX009 (ip), vehicle: saline with Tween-80"}},
  "note": "“And” between values parts separate entries of the source, which are not always exact repeats. Equal values may be shown once. Inconclusive results and toxic doses are left out.",
  "data": [
    {"smiles": "C=C1C(=O)OC(C)(C)C1c1ccccc1", "note": "(stereo not drawn)", "values": [
      {"measurement": "T/C", "setting": "dose: 50.0 mg/kg/injection, schedule: Q01DX009 (ip), vehicle: Klucel (hydroxypropylcellulose) (HPC)", "result": "96 % of control"},
      {"measurement": "T/C", "setting": "dose: 100.0 mg/kg/injection, schedule: Q01DX009 (ip), vehicle: Klucel (hydroxypropylcellulose) (HPC)", "result": "90 % of control"}
    ]},
    {"smiles": "OC(CCl)Cn1nc2ccccc2n1", "note": "(stereo not drawn)", "values": [
      {"measurement": "T/C", "setting": "dose: 50.0 mg/kg/injection, schedule: Q01DX005 (ip), vehicle: Klucel (hydroxypropylcellulose) (HPC)", "result": "96 % of control"},
      {"measurement": "T/C", "setting": "dose: 100.0 mg/kg/injection, schedule: Q01DX005 (ip), vehicle: Klucel (hydroxypropylcellulose) (HPC)", "result": "105 % of control"},
      {"measurement": "T/C", "setting": "dose: 100.0 mg/kg/injection, schedule: Q04DX003 (ip), vehicle: Klucel (hydroxypropylcellulose) (HPC)", "result": "99 % of control"},
      {"measurement": "T/C", "setting": "dose: 200.0 mg/kg/injection, schedule: Q01DX005 (ip), vehicle: Klucel (hydroxypropylcellulose) (HPC)", "result": "103 % of control"},
      {"measurement": "T/C", "setting": "dose: 200.0 mg/kg/injection, schedule: Q04DX003 (ip), vehicle: Klucel (hydroxypropylcellulose) (HPC)", "result": "99 % of control"},
      {"measurement": "T/C", "setting": "dose: 400.0 mg/kg/injection, schedule: Q04DX003 (ip), vehicle: Klucel (hydroxypropylcellulose) (HPC)", "result": "93 % of control"}
    ]},
    {"smiles": "NS(=O)(=O)c1ncc(C(=O)N2CCN(Cc3ccccc3)CC2)[nH]1", "values": [
      {"measurement": "T/C", "setting": "dose: 60.0 mg/kg/injection, schedule: Q01DX005 (ip), vehicle: saline with Tween-80", "result": "103 % of control"},
      {"measurement": "T/C", "setting": "dose: 120.0 mg/kg/injection, schedule: Q01DX005 (ip), vehicle: saline with Tween-80", "result": "107 % of control"},
      {"measurement": "T/C", "setting": "dose: 240.0 mg/kg/injection, schedule: Q01DX005 (ip), vehicle: saline with Tween-80", "result": "100 % of control"}
    ]},
    {"smiles": "O=C(Oc1ccc[nH]c1=O)C12CC3CC(CC(C3)C1)C2", "values": [
      {"measurement": "T/C", "setting": "dose: 50.0 mg/kg/injection, schedule: Q01DX009 (ip), vehicle: saline", "result": "101 % of control"},
      {"measurement": "T/C", "setting": "dose: 100.0 mg/kg/injection, schedule: Q01DX009 (ip), vehicle: saline", "result": "100 % of control"},
      {"measurement": "T/C", "setting": "dose: 200.0 mg/kg/injection, schedule: Q01DX009 (ip), vehicle: saline", "result": "98 % of control and 94 % of control"},
      {"measurement": "T/C", "setting": "dose: 400.0 mg/kg/injection, schedule: Q01DX009 (ip), vehicle: saline", "result": "99 % of control and 93 % of control"}
    ]},
    {"smiles": "CNC(=O)NC(c1cc(OC)c(OC)c(OC)c1)c1cc2c(cc1O)OCO2", "note": "(stereo not drawn)", "values": [
      {"measurement": "T/C", "setting": "dose: 30.0 mg/kg/injection, schedule: Q01DX005 (ip), vehicle: Klucel (hydroxypropylcellulose) (HPC)", "result": "89 % of control"},
      {"measurement": "T/C", "setting": "dose: 60.0 mg/kg/injection, schedule: Q01DX005 (ip), vehicle: Klucel (hydroxypropylcellulose) (HPC)", "result": "87 % of control and 92 % of control"},
      {"measurement": "T/C", "setting": "dose: 240.0 mg/kg/injection, schedule: Q01DX005 (ip), vehicle: Klucel (hydroxypropylcellulose) (HPC)", "result": "87 % of control"}
    ]},
    {"smiles": "NC(CSCc1ccc(N(CCCl)CCCl)cc1)C(=O)O", "note": "(stereo not drawn)", "values": [
      {"measurement": "T/C", "setting": "dose: 4.0 mg/kg/injection, schedule: Q01DX009 (ip), vehicle: saline with Tween-80", "result": "172 % of control"},
      {"measurement": "T/C", "setting": "dose: 6.0 mg/kg/injection, schedule: Q01DX009 (ip), vehicle: saline with Tween-80", "result": "218 % of control"},
      {"measurement": "T/C", "setting": "dose: 6.25 mg/kg/injection, schedule: Q01DX009 (ip), vehicle: saline with Tween-80", "result": "245 % of control"},
      {"measurement": "T/C", "setting": "dose: 9.0 mg/kg/injection, schedule: Q01DX009 (ip), vehicle: saline with Tween-80", "result": "159 % of control"}
    ]},
    {"smiles": "Cc1oc2ccccc2c(=O)c1CN(CCO)CCO", "values": [
      {"measurement": "T/C", "setting": "dose: 60.0 mg/kg/injection, schedule: Q01DX005 (ip), vehicle: saline", "result": "95 % of control"},
      {"measurement": "T/C", "setting": "dose: 120.0 mg/kg/injection, schedule: Q01DX005 (ip), vehicle: saline", "result": "101 % of control"}
    ]},
    {"smiles": "COc1c2occc2cc2ccc(=O)oc12", "values": [
      {"measurement": "T/C", "setting": "dose: 8.0 mg/kg/injection, schedule: Q01DX009 (ip), vehicle: saline with Tween-80", "result": "89 % of control"},
      {"measurement": "T/C", "setting": "dose: 11.0 mg/kg/injection, schedule: Q01DX009 (ip), vehicle: saline with Tween-80", "result": "111 % of control"},
      {"measurement": "T/C", "setting": "dose: 16.0 mg/kg/injection, schedule: Q01DX009 (ip), vehicle: saline with Tween-80", "result": "87 % of control"},
      {"measurement": "T/C", "setting": "dose: 22.0 mg/kg/injection, schedule: Q01DX009 (ip), vehicle: saline with Tween-80", "result": "102 % of control"},
      {"measurement": "T/C", "setting": "[1]", "result": "121 % of control"},
      {"measurement": "T/C", "setting": "dose: 32.0 mg/kg/injection, schedule: Q01DX009 (ip), vehicle: saline with Tween-80", "result": "100 % of control"},
      {"measurement": "T/C", "setting": "dose: 44.0 mg/kg/injection, schedule: Q01DX009 (ip), vehicle: saline with Tween-80", "result": "104 % of control"},
      {"measurement": "T/C", "setting": "[2]", "result": "116 % of control"},
      {"measurement": "T/C", "setting": "dose: 64.0 mg/kg/injection, schedule: Q01DX009 (ip), vehicle: saline with Tween-80", "result": "88 % of control"},
      {"measurement": "T/C", "setting": "dose: 88.0 mg/kg/injection, schedule: Q01DX009 (ip), vehicle: saline with Tween-80", "result": "107 % of control"},
      {"measurement": "T/C", "setting": "dose: 100.0 mg/kg/injection, schedule: Q01DX009 (ip), vehicle: saline with Tween-80", "result": "117 % of control"},
      {"measurement": "T/C", "setting": "dose: 128.0 mg/kg/injection, schedule: Q01DX009 (ip), vehicle: saline with Tween-80", "result": "106 % of control"},
      {"measurement": "T/C", "setting": "dose: 256.0 mg/kg/injection, schedule: Q01DX009 (ip), vehicle: saline with Tween-80", "result": "94 % of control"}
    ]},
    {"smiles": "O=[N+]([O-])c1cc([N+](=O)[O-])c2ccccc2c1NS(=O)(=O)c1ccc(Br)cc1", "values": [
      {"measurement": "T/C", "setting": "[1]", "result": "103 % of control"},
      {"measurement": "T/C", "setting": "[2]", "result": "117 % of control"}
    ]},
    {"smiles": "CC[C@@H](C)[C@@H]1NC(=O)C(NC(=O)C(CC(C)C)N(C)C(=O)C2CCCN2C(=O)C(C)O)C(C)OC(=O)C(Cc2ccc(OC)cc2)N(C)C(=O)C2CCCN2C(=O)C(CC(C)C)NC(=O)C(C)C(=O)C(C(C)C)OC(=O)C[C@H]1O", "note": "(stereo partly drawn)", "values": [
      {"measurement": "T/C", "setting": "dose: 0.03 mg/kg/injection, schedule: Q01DX009 (ip), vehicle: none", "result": "171 % of control"},
      {"measurement": "T/C", "setting": "dose: 10.0 micrograms/kg/injection, schedule: Q01DX009 (ip), vehicle: distilled water + alcohol", "result": "112 % of control"},
      {"measurement": "T/C", "setting": "dose: 20.0 micrograms/kg/injection, schedule: Q01DX009 (ip), vehicle: distilled water + alcohol", "result": "112 % of control"},
      {"measurement": "T/C", "setting": "dose: 80.0 micrograms/kg/injection, schedule: Q01DX009 (ip), vehicle: distilled water + alcohol", "result": "155 % of control"}
    ]}
  ]
}
